Structures can show the parent of a compound that is named as a salt. Where two headings read alike, the source gives them in different places.

The test system of assay [1] is pseudotyped VSV G particles (VSVpp). The assay can be described thus: microbe, parasite or virus in culture. It counts as cell-based, vesicular stomatitis virus.
The subject of assay [2] is pseudotyped HCV GT1b particles (HCVpp). In words: microbe, parasite or virus in culture. Format: cell-based, HCV GT1b Con1 strain.
Setting [3] is: Vesicular stomatitis virus, 72 h, read-out: VSVpp (EC50, μM).
[4] abbreviates: Hepatitis C virus, GT1B, 72 h, read-out: HCVpp GT-1b (EC50, μM).

On to `Nc1nc(Nc2ccc(-c3cccnn3)c(Cl)c2)n[nH]1` [Compound 14, N3-(3-chloro-4-(pyridazin-3-yl)phenyl)-1H-1,2,4-triazole-3,5-diamine], for which the EC50 in assay [1] (setting [3]) is 15 µM; in assay [2] (setting [4]), 6.52 µM.
For `Nc1nc(Nc2cc(Cl)c(-c3cncc(Cl)c3)c(Cl)c2)n[nH]1` [Compound 43, N-3-[3,5-Dichloro-4-(5-chloro-pyridin-3-yl)-phenyl]-1H-[1,2,4]triazole-3,5-diamine], the EC50 in assay [1] (setting [3]) amounted to 5.3 µM; in assay [2] (setting [4]), 0.771 µM.
For `CC(C)(C)OC(=O)N1CC=C(c2c(Cl)cc(Nc3n[nH]c(N)n3)cc2Cl)CC1` [Compound 18, tert-Butyl 4-(4-(5-amino-1H-1,2,4-triazol-3-ylamino)-2,6-dichlorophenyl)-5,6-dihydropyridine-1(2H)-carboxylate], the values for the EC50 in assay [1] (setting [3]) and in assay [2] (setting [4]) were ≥ 10 µM and 0.088 µM, respectively.
For `Nc1nc(Nc2ccc(-n3ccccc3=O)cc2)n[nH]1` [Compound 28, 1-[4-(5-Amino-1H-[1,2,4]triazol-3-ylamino)-phenyl]-1H-pyridin-2-one], the figures for the EC50 in assay [1] (setting [3]) and in assay [2] (setting [4]) were ≥ 100 µM and 100 µM, respectively.
On to `Nc1nc(Nc2ccc(-n3ccccc3=O)c(Cl)c2)n[nH]1` [Compound 29, 1-[4-(5-Amino-1H-[1,2,4]triazol-3-ylamino)-2-chloro-phenyl]-1H-pyridin-2-one], for which the EC50 stood at 8.1 µM in assay [1] (setting [3]) and 13.7 µM in assay [2] (setting [4]).
The like results for `CC(C)(NS(=O)(=O)c1ccc(-c2c(Cl)cc(Nc3n[nH]c(N)n3)cc2C(F)(F)F)cn1)C(F)(F)F` [Compound 25, 5-[4-(5-Amino-1H-[1,2,4]triazol-3-ylamino)-2-chloro-6-trifluoromethyl-phenyl]-pyridine-2-sulfonic acid (2,2,2-trifluoro-1,1-dimethyl-ethyl)-amide] were, in that order, ≥ 10 µM and 0.005 µM.
Consider “5-[4-(5-Amino-1H-[1,2,4]triazol-3-ylamino)-2-chloro-6-trifluoromethyl-phenyl]-pyridine-2-sulfonic acid tert-butylamide [Compound 24]”, for which the EC50 was found to be 4.1 µM in assay [1] (read-out: VSVpp (EC50)) and 0.008 µM in assay [2] (read-out: HCVpp GT-1b (EC50)).
For `CC(C)(C)OC(=O)N1CC2(C1)CN(c1c(Cl)cc(Nc3nc(N)n[nH]3)cc1Cl)C2` [Compound 12, 6-[4-(5-Amino-2H-[1,2,4]triazol-3-ylamino)-2,6-dichlorophenyl]-2,6-diaza-spiro[3.3]heptane-2-carboxylic acid tert-butyl ester], the EC50 in assay [1] (setting [3]) is ≥ 10 µM; in assay [2] (setting [4]) it was 0.216 µM.
Regarding `COc1cc(-c2c(Cl)cc(Nc3n[nH]c(N)n3)cc2Cl)ccn1` [Compound 6, N3-(3,5-dichloro-4-(2-methoxypyridin-4-yl)phenyl)-1H-1,2,4-triazole-3,5-diamine], the EC50 is ≥ 10 µM in assay [1] (setting [3]) and 0.33 µM in assay [2] (setting [4]).
For `COc1ccc(-c2c(Cl)cc(Nc3n[nH]c(N)n3)cc2Cl)cn1` [Compound 1, N*3*-[3,5-Dichloro-4-(6-methoxy-pyridin-3-yl)-phenyl]-1H-[1,2,4]triazole-3,5-diamine], the values for the EC50 in assay [1] (setting [3]) and in assay [2] (setting [4]) were 3.7 µM and 0.767 µM, respectively.
The matching figures for `Nc1nc(Nc2cc(Cl)c(-c3cc[nH]c(=O)c3)c(Cl)c2)n[nH]1` [Compound 7, 4-[4-(5-Amino-1H-[1,2,4]triazol-3-ylamino)-2,6-dichloro-phenyl]-1H-pyridin-2-one]: ≥ 10 µM and 0.809 µM.
The matching figures for `Nc1nc(Nc2cc(Cl)c(C3=NCCCN3)c(Cl)c2)n[nH]1` [Compound 31, N3-(3,5-dichloro-4-(1,4,5,6-tetrahydropyrimidin-2-yl)phenyl)-1H-1,2,4-triazole-3,5-diamine. trifluoroacetic salt]: 4.7 µM and 5.45 µM.
On to `Nc1nc(Nc2cc(Cl)c(-n3ccccc3=O)c(Cl)c2)n[nH]1` [Compound 30, 1-[4-(5-Amino-1H-[1,2,4]triazol-3-ylamino)-2,6-dichloro-phenyl]-1H-pyridin-2-one], for which the EC50 in assay [1] (setting [3]) stood at 5.6 µM; in assay [2] (setting [4]), 5.75 µM.
For the compound `Nc1ncc(-c2c(Cl)cc(Nc3n[nH]c(N)n3)cc2Cl)cn1` [Compound 5, N*3*-[4-(2-Amino-pyrimidin-5-yl)-3,5-dichloro-phenyl]-1H-[1,2,4]triazole-3,5-diamine], the EC50 turned out to be 0.4 µM in assay [1] (setting [3]) and 0.1 µM in assay [2] (setting [4]).
With `Cn1cc(-c2c(Cl)cc(Nc3n[nH]c(N)n3)cc2Cl)c(C(F)(F)F)n1` [Compound 42, N-3-[3,5-Dichloro-4-(1-methyl-3-trifluoromethyl-1H-pyrazol-4-yl)-phenyl]-1H-[1,2,4]triazole-3,5-diamine], the EC50 in assay [1] (setting [3]) was found to be 2.4 µM; in assay [2] (setting [4]), 0.0527 µM.
`Nc1ccc(-c2c(Cl)cc(Nc3n[nH]c(N)n3)cc2Cl)cn1` [Compound 4, N*3*-[4-(6-Amino-pyridin-3-yl)-3,5-dichloro-phenyl]-1H-[1,2,4]triazole-3,5-diamine]: the EC50 in assay [1] (setting [3]) came to 1.4 µM; in assay [2] (setting [4]), 0.173 µM.

A word on the EC50: it is the midpoint of the concentration-response curve.

(Values after patent US9540345B2, “Antiviral compounds” (priority 2013, dated 2017).)
